Laboratory results taken from patent publication US20110045101A1, “FUNGICIDAL SUBSTITUTED AZOLES” (E.I. Du Pont De Nemours and Company, priority 2009, published 2011).
Marks after values point to notes of the source that are not given here.

Columns and labels:
Type in all cases: in vivo
Conditions in all cases: 100 = 100% disease control
Botrytis cinerea = assay: Test C: tomato Botrytis on tomato seedlings, sprayed the day before inoculation, visual disease rating
Method in brief: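 Rate: 200 ppm sprayed to run-off, corresponding to 500 g/ha; flagged values used 40 ppm. Vehicle was aqueous acetone (1:1) plus 250 ppm surfactant, compounds predissolved in acetone at 3% of volume. Plants were tomato seedlings.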

Alternaria solani = assay: Test D: tomato early blight, sprayed the day before inoculation, visual disease rating
Method in brief: (§1)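 Plants received a run-off spray at 200 ppm (equivalent to 500 g/ha) or, for starred values, 40 ppm. Formulation used acetone at 3% of volume in a 50/50 acetone/water mix carrying 250 ppm Trem® 014.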

Septoria nodorum = assay: Test F: wheat glume blotch on wheat seedlings, sprayed the day before inoculation, visual disease rating
Method in brief: as §1

Septoria tritici = assay: Test G: wheat leaf blotch on wheat seedlings, sprayed the day before inoculation, visual disease rating
Method in brief: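 Wheat seedlings were sprayed with compound suspensions, 200 ppm unless starred (40 ppm). After next-day spore inoculation, plants spent 48 h saturated at 24° C, then 19 days at 20° C, when disease was rated visually.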

[1] = system: Puccinia recondita f. sp. tritici; assay: Test H: wheat leaf rust, test suspension sprayed after inoculation of wheat seedlings, visual disease rating
Method in brief: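 Wheat seedlings inoculated with P. recondita spores, held 24 h saturated at 20 °C, then 2 days in growth chamber at 20 °C; compound suspension (acetone/water with Trem 014) sprayed to run-off afterwards. Rated visually; 200 ppm (≈500 g/ha) unless marked *, which denotes 40 ppm.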

[2] = system: Puccinia recondita f. sp. tritici; assay: Test I: wheat leaf rust on wheat seedlings, sprayed the day before inoculation, visual disease rating
Method in brief: as §1

[3] = system: Erysiphe graminis f. sp. tritici; assay: Test J: wheat powdery mildew on wheat seedlings, sprayed the day before inoculation, visual disease rating
Method in brief: as §1

[4] = 200 ppm, 0 = no control relative to controls
[5] = 40 ppm (marked *), 0 = no control

| SMILES | Test C disease control rating (Botrytis cinerea; [4]) [%] | Test D disease control rating (Alternaria solani; [4]) [%] | Test F disease control rating (Septoria nodorum; [4]) [%] | Test G disease control rating (Septoria tritici; [4]) [%] | Test H disease control rating [1, 4] [%] | Test I disease control rating [2, 4] [%] | Test J disease control rating [3, 4] [%] | further results |
| --- | --- | --- | --- | --- | --- | --- | --- | --- |
| Cc1nc(Br)n(-c2ccc(F)cc2Cl)c1-c1ccc(Cl)c(F)c1 [compound 325] | 94 | 91 | 51 | 96 | 0 | 97 | 99 | – |
| COc1cc(F)c(-c2c(Br)nnn2-c2ccc(Cl)cc2)c(F)c1 [compound 627] | 99 | 99 | 0 | 99 | 40 | 95 | 98 | – |
| COc1nn(C)c(-c2ccc(F)cc2Cl)c1-c1ccc(I)cc1 [compound 432] | 33 | 0 | 0 | 25 | 0 | 0 | 0 | – |
| COc1cc(F)c(-c2c(Cl)nc(C)n2-c2ccc(Cl)nc2)c(F)c1 [compound 739] | 100 | 100 | 100 | 100 | 100 | 100 | 100 | – |
| Fc1cccc(F)c1-c1c(Cl)nc(Br)n1-c1ccc2ncccc2c1 [compound 327] | – | – | – | – | – | – | – | Test C disease control rating (Botrytis cinerea; [5]): 99* %; Test D disease control rating (Alternaria solani; [5]): 98* %; Test F disease control rating (Septoria nodorum; [5]): 0* %; Test G disease control rating (Septoria tritici; [5]): 94* %; Test H disease control rating [1, 5]: 0* %; Test I disease control rating [2, 5]: 86* %; Test J disease control rating [3, 5]: 0* % |
| COc1cc(F)c(-c2c(Br)ncn2-c2ccc(C)nc2)c(F)c1 [compound 555] | 100 | 99 | 69 | 98 | 0 | 100 | 98 | – |
| Fc1cccc(F)c1-c1c(Br)nc(Br)n1-c1cccnc1Cl [compound 618] | 98 | 85 | 0 | 98 | 99 | 99 | 97 | – |
| COc1cc(F)c(-c2c(N(C)C)ncn2Cc2ccc(C)cc2)c(F)c1 [compound 275] | – | – | – | – | – | – | – | Test C disease control rating (Botrytis cinerea; 200 ppm, 0 = no control): 100%; Test D disease control rating (Alternaria solani; 200 ppm, 0 = no control): 82%; Test F disease control rating (Septoria nodorum; 200 ppm, 0 = no control): 0%; Test G disease control rating (Septoria tritici; 200 ppm, 0 = no control): 85%; Test H disease control rating ([1]; 200 ppm, 0 = no control): 9%; Test I disease control rating ([2]; 200 ppm, 0 = no control): 74%; Test J disease control rating ([3]; 200 ppm, 0 = no control): 0% |
| CCc1cccc(-n2c(Br)nc(Cl)c2-c2c(F)ccc(OC)c2F)c1 [compound 398] | 100 | 80 | 79 | 96 | 0 | 79 | 100 | – |
| COc1cc(F)c(-n2cnc(C)c2-c2ccc(Cl)nc2)c(F)c1 [Compound 685, 2-chloro-5-[1-(2,6-difluoro-4-methoxyphenyl)-4-methyl-1H-imidazol-5-yl]pyridine] | – | – | – | – | – | – | – | pest or weed control at 40 ppm (Botrytis cinerea; Botrytis cinerea, 120 h, 40 ppm (marked *)): 100%; pest or weed control at 40 ppm (Alternaria solani; Alternaria solani, 168 h, 40 ppm (marked *)): 99%; pest or weed control at 40 ppm (Septoria nodorum; Parastagonospora nodorum, 264 h, 40 ppm (marked *)): 0%; pest or weed control at 40 ppm (Septoria tritici; Zymoseptoria tritici, 504 h, 40 ppm (marked *)): 87%; pest or weed control at 40 ppm ([1]; Puccinia recondita, 96 h, 40 ppm (marked *)): 0%; pest or weed control at 40 ppm ([2]; Puccinia recondita, 168 h, 40 ppm (marked *)): 68%; pest or weed control at 40 ppm ([3]; Blumeria graminis, 168 h, 40 ppm (marked *)): 64% |
| COc1cc(F)c(-c2c(Cl)nc(Br)n2-c2cccc(OC(F)(F)F)c2)c(F)c1 [compound 547] | 99 | 88 | 60 | 97 | 0 | 99 | 100 | – |
| COc1cc(F)c(-c2c(Cl)nc(Cl)n2-c2ccc(C)c(Cl)c2)c(F)c1 [compound 502] | – | – | – | – | – | – | – | Test C disease control rating (Botrytis cinerea; 40 ppm (marked *)): 90* %; Test D disease control rating (Alternaria solani; 40 ppm (marked *)): 92* %; Test F disease control rating (Septoria nodorum; 40 ppm (marked *)): 60* %; Test G disease control rating (Septoria tritici; 40 ppm (marked *)): 93* %; Test H disease control rating ([1]; 40 ppm (marked *)): 0* %; Test I disease control rating ([2]; 40 ppm (marked *)): 98* %; Test J disease control rating ([3]; 40 ppm (marked *)): 100* % |
| Cc1ncc(Cc2c(F)cc(F)cc2F)n1-c1c(Cl)cccc1Cl [compound 536] | 89 | 68 | 0 | 90 | 37 | 98 | 98 | – |
| COc1cc(F)c(-n2c(C)nc(Cl)c2-c2ccc(Cl)cc2)c(F)c1 [compound 423] | – | – | – | – | – | – | – | Test C disease control rating (Botrytis cinerea; [5]): 100* %; Test D disease control rating (Alternaria solani; [5]): 0* %; Test F disease control rating (Septoria nodorum; [5]): 69* %; Test G disease control rating (Septoria tritici; [5]): 94* %; Test H disease control rating [1, 5]: 0* %; Test I disease control rating [2, 5]: 91* %; Test J disease control rating [3, 5]: 99* % |
| Cc1nc(Br)n(-c2ccc(Cl)nc2)c1-c1c(F)ccc(C#N)c1F [compound 715] | 100 | 100 | 78 | 99 | 100 | 99 | 73 | – |
| N#Cc1ccc(F)c(-c2c(Cl)nc(Cl)n2-c2ccc(F)cc2)c1F [compound 679] | 100 | 100 | 99 | 99 | 18 | 100 | 100 | – |
| Fc1cc(-n2cnc(Br)c2-c2c(F)ccc(F)c2F)ccc1Cl [compound 342] | 100 | 99 | 0 | 95 | 0 | 98 | 99 | – |
| CCOc1ccc(F)c(-c2c(Cl)nc(Br)n2-c2cccc(F)c2)c1F [compound 663] | 100 | 99 | 99 | 99 | 54 | 99 | 100 | – |
| COc1cc(F)c(-c2c(O)nc(C)n2-c2ccc(Cl)cc2)c(F)c1 [compound 672] | 96 | 0 | 0 | 87 | 0 | 0 | 0 | – |
| COc1cc(F)c(-c2c(Cl)nc(Cl)n2Cc2ccc(Cl)nc2)c(F)c1Cl [compound 668] | 100 | 99 | 91 | 99 | 0 | 85 | 96 | – |
| COc1cc(F)c(-c2c(Cl)nnn2-c2ccc(Cl)cc2)c(F)c1 [compound 626] | 99 | 99 | 0 | 100 | 17 | 79 | 97 | – |
| COc1ccc(F)c(-c2c(Cl)nc(Cl)n2-c2ccc(F)cc2)c1F [compound 390] | 100 | 100 | 99 | 95 | 18 | 100 | 100 | – |
| Cc1nc(Cl)n(-c2ccc(Cl)c(F)c2)c1-c1ccnc(Br)c1 [compound 354] | 100 | 99 | 0 | 93 | 0 | 98 | 97 | – |
| Cc1ccc(-n2cnc(Br)c2-c2c(F)ccc(F)c2F)cc1 [compound 411] | 100 | 100 | 0 | 99 | 0 | 99 | 100 | – |
